Reference: patent publication US9169241B2, “Quinolinyloxyphenylsulfonamides” (Max-Planck-Gesellschaft Zur Forderung der Wissenschaften …, priority 2009, dated 2015)

How the values were obtained:
Hs578T [1] = assay: Cell vitality assay (ATP assay, CellTiter-Glo); type: cell-based; conditions: Homo sapiens, Hs-578T; HS578T cell line, 72 h; Table Ib; read-out: IC50 ATP-Assay HS578T after 72 h
Procedure, shortened: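 1000 cells/well were exposed to compound at 12.5 μM down to 0.195 μM (twofold steps) or DMSO for 72 h. ATP was then measured by luminescence after 10 min reagent lysis at room temperature. IC50 was taken as the concentration giving 50% of the DMSO-control ATP level.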

[2] = molecular target: T1, wild type AXL (wtAXL) receptor tyrosine kinase (Homo sapiens, UniProt P30530); assay: NIH-3T3-AXL cellular kinase assay (pY-AXL-ELISA); type: cell-based; conditions: NIH-3T3-AXL (clone 22) cells, serum depleted, compounds 1 h; Table Ia
T1 construct: WtAXL cDNA was cloned into vector pLXSN(ESK) and transfected into Phoenix E packaging cells; expressed in transfected cells; host or cells: NIH3T3 N7 (mouse fibroblasts), retrovirally infected, clone 22
T1 sequence (P30530 26-894): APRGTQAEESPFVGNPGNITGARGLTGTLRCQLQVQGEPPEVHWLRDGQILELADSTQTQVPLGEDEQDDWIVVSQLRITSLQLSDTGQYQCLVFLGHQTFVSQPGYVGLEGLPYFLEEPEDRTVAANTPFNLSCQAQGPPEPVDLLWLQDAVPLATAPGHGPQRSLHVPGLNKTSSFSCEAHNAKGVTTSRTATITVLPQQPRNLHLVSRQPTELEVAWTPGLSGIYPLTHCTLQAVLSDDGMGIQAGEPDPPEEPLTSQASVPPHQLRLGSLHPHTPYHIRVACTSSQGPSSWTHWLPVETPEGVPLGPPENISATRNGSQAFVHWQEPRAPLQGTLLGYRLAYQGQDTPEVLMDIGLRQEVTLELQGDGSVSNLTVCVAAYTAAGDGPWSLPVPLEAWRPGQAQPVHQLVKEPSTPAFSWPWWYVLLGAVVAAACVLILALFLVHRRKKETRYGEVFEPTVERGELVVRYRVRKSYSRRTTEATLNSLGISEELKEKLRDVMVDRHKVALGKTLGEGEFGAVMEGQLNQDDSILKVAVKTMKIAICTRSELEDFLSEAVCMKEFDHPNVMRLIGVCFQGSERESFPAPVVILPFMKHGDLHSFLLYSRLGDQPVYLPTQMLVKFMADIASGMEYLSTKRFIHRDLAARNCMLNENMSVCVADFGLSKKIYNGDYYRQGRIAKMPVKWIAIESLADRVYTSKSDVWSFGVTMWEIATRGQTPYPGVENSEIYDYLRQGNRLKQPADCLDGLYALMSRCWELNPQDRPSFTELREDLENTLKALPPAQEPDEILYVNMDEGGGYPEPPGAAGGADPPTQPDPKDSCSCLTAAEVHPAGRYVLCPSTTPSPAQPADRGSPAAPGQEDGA
Description: WtAXL cDNA was cloned into vector pLXSN(ESK) and transfected into Phoenix E packaging cells. The viral supernatant was collected and used to infect target cells NIH3T3 N7. Monoclonal NIH3T3-AXL cell lines stably expressing wtAXL were generated by selecting retrovirally infected cells in medium containing puromycin (2 μg/ml) and subsequent clonal separation.
Serial dilutions of compounds were added, and the cells were further incubated for 1 h. Cells were washed with PBS and lysed on ice in 500 μl lysis buffer (50 mM HEPES (pH 7.5), 150 mM NaCl, 1 mM EGTA, 10% Glycerol, 1% Triton X-100, 100 mM NaF, 10 mM Na4P2O7.10H2O, 1 mM Na3VO4, 1 mM phenylmethylsulfonyl fluoride, and […]) for 15 min. The cell lysate were used for phosphotyrosine AXL enzyme-linked immunosorbant assay (pY-AXL-ELISA). […] Subsequently 96-well plates were blocked with PBS-0.05% Tween®20+10% FBS for 4 h at 37° C. Plates were washed 5 times with PBS-0.05% Tween®20 and 95 μl of lysate was transferred per well for incubation overnight at 4° C. Plates were washed 5 times with PBS-0.05% Tween®20 (Sigma, Steinheim, Germany). For detection of phosphorylated tyrosine we used homemade biotynilated 4G10-antibody (0.5 μg/ml) in PBS-0.05% Tween®20+10% FBS (100 μl/well) and incubated the 96-well plate for 2 h at room temperature. The anti-phosphotyrosine mouse monoclonal antibody 4G10 was biotynilated with Sulfo-NHS®-Biotin according to the suppliers protocol (Pierce, Rockford, Ill., USA) and purified by Mirco Bio-Spin 6 Chromatograpy Columns (BIO RAD Laboratories, Inc., Hercules, Calif., USA) using PBS as diluent. Plates were washed 5 times with PBS-0.05% Tween®20. For biding to biotin Alkaline Phosphatase Conjugated Strepavidin SA110 (Millipore, Billerica, Mass., USA) (1:4000) was used in PBS-0.05% Tween20+10% FBS (100 μl/well) and incubated for 30 min at room temperature. Plates were washed 5 times with PBS-0.05% Tween20. For fluorimetric detection of alkaline phosphatase AttoPhos Substrate Set (Roche diagnostics GmbH, Mannheim, Germany) was used (100 μl/well). The fluorimetric signal was quantified after 90 min at 430/560 nm wavelength using a TECAN Ultra Evolution plate reader (Tecan Deutschland GmbH, Crailsheim, Germany).

Hs578T [3] = assay: Matrigel outgrowth assay/branching assay; type: cell-based; conditions: Homo sapiens, Hs-578T; HS578T cell line; Table Ib; read-out: Total branching inhibition in Matrigel HS578T
Procedure, shortened: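 Read-out: microscopic images of invasive branching structures at 48 h, 72 h and 96 h. Cells sat on a 3 mg/ml Matrigel layer (set 1 h, 37° C) with compound at 3.125, 1.56 and 0.78 μM or DMSO. A concentration counts as positive only with complete branching inhibition.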

Hs578T [4] = assay: Wound healing migration assay; type: cell-based; conditions: Homo sapiens, Hs-578T; HS578T cell line; Table Ib
Procedure, shortened: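 Cells seeded at 150000/24 well, grown to monolayer overnight, scratched with a pipette tip, then treated with compound at 12.5, 6.25 or 3.125 μM versus DMSO. Stopped by crystal violet fixation at 48-72 h once control wounds closed; IC50 taken as 50% wound size between t0 and t48 or t72.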

Row | melting point [°C] | IC50 [2] [µM] | IC50 (Hs578T [4]) [µM] | Structure (SMILES) | IC50 (Hs578T [1]) [µM] | IC50 (Hs578T [3]) [µM]
1 | 128 to 130 | < 0.5 | ≤ 12.5 | COc1cc2c(Oc3ccc(NS(=O)(=O)c4csc5ccccc45)cc3F)ccnc2cc1OCCCN1CCCCC1 [Example 113, Benzo[b]thiophene-3-sulfonic acid {3-fluoro-4-[6-methoxy-7-(3-piperidin-1-yl-propoxy)-quinolin-4-yloxy]-phenyl}-amide] | ≤ 12.5 | ≤ 10
2 | 120 to 122 | 0.5 to 3 | ≤ 12.5 | COc1cc2c(Oc3ccc(NS(=O)(=O)c4csc5ccccc45)cc3F)ccnc2cc1OCCCN1CCCCC1C (centres unmarked) [Example 147, Benzo[b]thiophene-3-sulfonic acid (3-fluoro-4-{6-methoxy-7-[3-(2-methyl-piperidin-1-yl)-propoxy]-quinolin-4-yloxy}-phenyl)-amide] | ≤ 12.5 | ≤ 10
3 | 127 to 130 | 0.5 to 3 | ≤ 12.5 | COc1cc2c(Oc3cc(NS(=O)(=O)c4cc(Cl)ccc4Cl)ccc3F)ccnc2cc1OCCCN1CCC(C)CC1 [Example 191, 2,5-Dichloro-N-(4-fluoro-3-{6-methoxy-7-[3-(4-methyl-piperidin-1-yl)-propoxy]-quinolin-4-yloxy}-phenyl)-benzenesulfonamide] | ≤ 12.5 | 10 to 25
4 | 111 to 113 | 0.5 to 3 | ≤ 12.5 | COc1cc2c(Oc3cccc(NS(=O)(=O)c4cc(Cl)ccc4Cl)c3)ccnc2cc1OCCCN1CCN(C)CC1 [Example 127, 2,5-Dichloro-N-(3-{6-methoxy-7-[3-(4-methyl-piperazin-1-yl)-propoxy]-quinolin-4-yloxy}-phenyl)-benzenesulfonamide] | ≤ 12.5 | ≤ 10
5 | 165 to 167 | < 0.5 | ≤ 12.5 | COc1cc2c(Oc3ccc(NS(=O)(=O)c4ccccc4C(F)(F)F)cc3C)ccnc2cc1OCCCN1CCC(C)CC1 [Example 89, N-(4-{6-Methoxy-7-[3-(4-methyl-piperidin-1-yl)-propoxy]-quinolin-4-yloxy}-3-methyl-phenyl)-2-trifluoromethyl-benzenesulfonamide] | ≤ 12.5 | ≤ 10
6 | 128 to 130 | < 0.5 | ≤ 12.5 | COc1cc2c(Oc3ccc(NS(=O)(=O)c4cc(Cl)ccc4Cl)cc3F)ccnc2cc1OCCCN1CCCCC1C (centres unmarked) [Example 154, 2,5-Dichloro-N-(3-fluoro-4-{6-methoxy-7-[3-(2-methyl-piperidin-1-yl)-propoxy]-quinolin-4-yloxy}-phenyl)-benzenesulfonamide] | ≤ 12.5 | 10 to 25
7 | 175 to 176 | 0.5 to 3 | 12.5 to 50 | COc1ccc2nccc(Oc3ccc(NS(=O)(=O)c4ccccc4OC(F)(F)F)cc3F)c2c1 [Example 202, N-[3-Fluoro-4-(6-methoxy-quinolin-4-yloxy)-phenyl]-2-trifluoromethoxy-benzenesulfonamide] | 12.5 to 50 | 10 to 25
8 | 112 to 114 | < 0.5 | ≤ 12.5 | COc1cc2c(Oc3ccc(NS(=O)(=O)c4csc5ccccc45)cc3F)ccnc2cc1OCCCN1CCN(C)CC1 [Example 116, Benzo[b]thiophene-3-sulfonic acid (3-fluoro-4-{6-methoxy-7-[3-(4-methyl-piperazin-1-yl)-propoxy]-quinolin-4-yloxy}-phenyl)-amide] | ≤ 12.5 | 10 to 25
9 | 206 to 208 | 0.5 to 3 | 12.5 to 50 | COc1cc2c(Oc3ccc(Cl)c(NS(=O)(=O)c4c(Cl)cccc4Cl)c3)ccnc2cc1OCCCN1CCC(C)CC1 [Example 198, 2,6-Dichloro-N-(2-chloro-5-{6-methoxy-7-[3-(4-methyl-piperidin-1-yl)-propoxy]-quinolin-4-yloxy}-phenyl)-benzenesulfonamide] | 12.5 to 50 | 10 to 25
10 | 174 to 176 | < 0.5 | ≤ 12.5 | COc1cc2c(Oc3ccc(NS(=O)(=O)c4ccsc4)cc3F)ccnc2cc1OCCCN1CCCC(C)C1 (centres unmarked) [Example 65, Thiophene-3-sulfonic acid (3-fluoro-4-{6-methoxy-7-[3-(3-methyl-piperidin-1-yl)-propoxy]-quinolin-4-yloxy}-phenyl)-amide] | ≤ 12.5 | 10 to 25
11 | 170 to 171 | < 0.5 | ≤ 12.5 | COc1cc2c(Oc3ccc(NS(=O)(=O)c4ccccc4F)cc3Cl)ccnc2cc1OCCCN1CCN(C)CC1 [Example 111, N-(3-Chloro-4-{6-methoxy-7-[3-(4-methyl-piperazin-1-yl)-propoxy]-quinolin-4-yloxy}-phenyl)-2-fluoro-benzenesulfonamide] | ≤ 12.5 | ≤ 10
12 | 206 to 208 | 0.5 to 3 | ≤ 12.5 | COc1cc2c(Oc3ccc(Cl)c(NS(=O)(=O)c4cc(F)ccc4F)c3)ccnc2cc1OCCCN1CCC(C)CC1 [Example 193, N-(2-Chloro-5-{6-methoxy-7-[3-(4-methyl-piperidin-1-yl)-propoxy]-quinolin-4-yloxy}-phenyl)-2,5-difluoro-benzenesulfonamide] | 12.5 to 50 | 10 to 25
13 | 126 to 128 | < 0.5 | ≤ 12.5 | COc1cc2c(Oc3ccc(NS(=O)(=O)c4cc(Cl)cc(Cl)c4)cc3F)ccnc2cc1OCCCN1CCCC(C)C1 (centres unmarked) [Example 53, 3,5-Dichloro-N-(3-fluoro-4-{6-methoxy-7-[3-(3-methyl-piperidin-1-yl)-propoxy]-quinolin-4-yloxy}-phenyl)-benzenesulfonamide] | ≤ 12.5 | 10 to 25
